From patent publication US20230165865A1, “HETEROARYLDIHYDROPYRIMIDINE DERIVATIVES AND METHODS OF TREATING HEPATITIS B INFECTIONS” (Janssen Pharmaceutica NV, priority 2018, published 2023)

System: HBV
Test: Anti-viral assay in HepG2.2.15 cells: anti-HBV activity, HBV DNA in culture medium by qPCR
Format: cell-based
Details: HepG2.2.15 cells, 6 days treatment, HBV DNA by qPCR; read-out: EC50
Outline: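 Cells in 2% FBS medium treated 6 days, compound and medium refreshed at day 3; 8-point 1:3 dilutions in triplicate, top 10 or 1 uM (antiviral) and 100 uM (cytotoxicity). Extracellular viral DNA quantified by qPCR, giving EC50 and CC50.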

SMILES: CCOC(=O)C1=C(CN2CCN3C(=S)N(CC(C)(C)C(=O)O)CC3C2)NC(c2nccs2)=N[C@H]1c1cccc(F)c1C (single isomer, unassigned) [Compound 1A]
- EC50: 6.3 nM
